Measurements: patent publication US7833795B2, “Assessment of cardiovascular risk using isoprostane biomarkers and COX-2 selective inhibitors” (The Trustees of the University of Pennsylvania, priority 2004, dated 2010)
Like-named read-outs stand apart in the source and are kept apart here.

Assays:
mice [1] = assay: Tail cuff blood pressure measurement; assay type: in vivo, mouse; settings: celecoxib treatment, regular chow diet
Procedure: (i) Tail Cuff measurement: Resting systolic blood was measured in conscious mice (3-4 months old) using a computerized noninvasive tail-cuff system (Visitech Systems, Apex, N.C.). […] Mice were adapted to the system for 14 days; measurements of sessions 25 minutes in length were done once each day between 15:00 and 18:00. After that, blood pressure was recorded daily for 3 consecutive days in the same way. Data were collected and analyzed using updated BP 2000 software (http://www(dot)visitechsystems(dot)com/).

Male C57BL/6J mice [2] = system: Male C57BL/6J mice
Procedure: (§1) Animals: All animal studies were performed according to protocols approved by the Institutional Committee for Use and Care of Laboratory Animals. Male C57BL/6J mice, aged four to six weeks were used for the flow reduction models. The parental background strain of the male, four to six week old donor mice in the transplant studies was also C57BL/6J (H2b). The background of the recipient mice was C3H(H2k) (Taconic Farms Inc, Germantown, N.Y.).
Urine was collected over a 24 hour period in metabolic cages (Nalgene Labware, Deepwater, N.J.) with vehicle or nimesulide allowed ad libitum. Urinary levels of prostanoid metabolites were measured by stable isotope dilution methods as previously described. […] A urine aliquot (0.1 ml) was used for measurement of creatinine by an automated colorimetric assay (Sigma-Aldrich Co., St Louis, Mo.).
(§2) Briefly, the distal left common carotid artery (LC) artery and its bifurcation into the external and internal carotid were exposed using blunt dissection. 9-0 nylon sutures (USSC Sutures, Norwalk, Conn.) were used to ligate the EC artery, incisions were closed (7-0 polypropylene) and mice were left to recover. Severe reduction in flow was achieved by ligating the LC artery just proximal to the external/internal carotid artery bifurcation. Five μm cross sections were used from parallel regions of RC and LC that were isolated in 5 millimeter (mm) blocks proximal to the ligation, until reaching a parallel point at the RC artery branchpoint with the right subclavian artery. […] Mice that developed thrombosis were excluded from the analysis. […] Urine was collected from individual mice using metabolic cages at four weeks of age, and again after a four week period of treatment, subsequent to either moderate or severe flow reduction. Urine samples were frozen at −20° for analysis.

Male C57BL/6J mice [3] = settings: nimesulide
Procedure: as §1, §2

Male C57BL/6J mice [4] = settings: one week after LC ligation, severe flow reduction
Source text: as §2

mice [5] = settings: mouse, in vivo
Procedure: Briefly, mice (12→16 weeks) were anesthetized with sodium pentobarbital (80 mg/kg, intraperitoneally). Following a midline cervical incision, the left common carotid artery was isolated and a Doppler flow probe (Model 0.5 VB, Transonic Systems Co., Ithaca, N.Y.) was applied. The probe was connected to a flowmeter (Transonic Model T105) and interpreted with Powerlab® (AD Instruments, Colorado Springs, Colo.), a computerized data acquisition program. Rose Bengal (Fisher Scientific, Fair Lawn, N.J.) was diluted to phosphate-buffered saline and then injected into the jugular vein in a volume of 0.12 ml at a concentration of 50 mg/kg. Immediately prior to injection, a 1.5-mW green light laser (540 nm) (Melles Griot, Carlsbad, Calif.) was applied to the desired site of injury from a distance of 5 cm carotid artery; blood flow was monitored for 120 minutes or until stable occlusion occurred, after which the mice still showing blood flow were assigned a value of 120 minutes. Stable occlusion was defined as a blood flow of 0 ml/min for 3 minutes.

eicosanoid biosynthesis = assay: Urinary eicosanoid analyses in mice; assay type: in vivo, mouse
Procedure: Mice: In all cases, transgenic mice deficient in the indicated gene were compared with appropriate strain-, age-, and sex-matched control animals. The investigator was unaware of the genotype throughout the experiment. All procedures were approved and animal husbandry was overseen by the Institutional Animal Care and Usage Committee of the University of Pennsylvania.
Eicosanoid analyses: Urinary 2,3-dinor TxB2 and 2,3-dinor 6-keto PGF1α were measured in twenty four hour urines collected in metabolic cages. After extraction and purification by thin layer chromatography, they were analyzed by gas chromatography/mass spectrometry, as previously described (Egan et al., 2005, Circulation 111:334). Urinary PGE-M was measured by LC/MS/MS as follows: First, 10 ng of hexadeuterated PGE-M (9,15-dioxo-11α-hydroxy-2,3,4,5-tetranor-prostan-1,20-dioic-17,17,18,18,19,19-d6 acid; Cayman Chemical Co., Ann Arbor, Mich.) was added to 0.1 ml of mouse urine. Next, 50 μL of methoxyamine HCl, 1 g/L, was added and the sample was mixed and allowed to stand at room temperature for 15 minutes. The sample was then diluted to 1.0 ml with water and extracted on a Strata™-X solid phase extraction (SPE) cartridge (Phenomenex Inc., Torrance, Calif.). The SPE was eluted with 1.0 mL of 5% acetonitrile in ethyl acetate, dried, dissolved in 200 μL 10% acetonitrile in water, and injected for LC/MS/MS analysis. Transitions monitored were m/z 385→336 for the endogenous PGE-M and 391→342 for the internal standard.

[6] = small, short-term studies of cardiopulmonary bypass grafting; cited from earlier work
[7] = Case study of short term valdecoxib use; assay type: in vivo, human; settings: valdecoxib 20 mg b.i.d. Person on oral contraceptive
Procedure: A ventilation-perfusion scan (VQ scan) was performed according to typical hospital procedure. Inhalation of 20.1 millicurie (mCi) of Xenon-133 gas was used for the ventilation scan. Intravenous injection of 4.1 mCi of Tc-99m-labelled MAA was used for the perfusion scan.
A person presented with pulmonary embolism. They had been taking, without complication, Ortho-Tricyclen® (0.180, 0.215, and 0.250 mg norgestimate cycles; 35 microgram (μg) ethinyl estradiol) for two years and Ortho Tri-cyclen® LO (same norgestimate; 25 μg ethinyl estradiol) for 14 months. A non-smoker, they lacked a relevant family history and was vigorously athletic.
One month prior to presentation, they developed neck pain. Disc protrusion at C5-C6 was detected by magnetic resonance imaging (MRI). The patient was prescribed valdecoxib 20 mg b.i.d. for two weeks. Their neck pain resolved. However, towards the end of this two-week treatment period, they developed left-sided pleuritic chest and shoulder pain after a 6 hour car ride. They were commenced on cyclobenzaprine 10 mg b.i.d. and continued on valdecoxib. Their left-sided pain abated gradually. However, 18 days later, they developed right-sided chest and shoulder pain. […]

heme oxygenase 1 (HO 1) = assay: Heme oxygenase 1 Western blotting in MASMC; assay type: cell-based, mouse; settings: 100 nM cicaprost, 8 hours, IP-dependent
Procedure: (§3) Mouse aortic smooth muscle cells (MASMCs): Primary aortic smooth muscle cells were prepared. […] Cells were cultured in Dulbecco's Modified Eagles medium (DMEM)/Ham's F12 (50/50) (Gibco BRL, Grand Island, N.Y.; with 15 mM HEPES and 2 mM glutamine) supplemented with 20% fetal bovine serum. Cells were routinely passaged using 0.05% trypsin/0.53 mM EDTA, seeded onto six well plates and used at 80-90% confluence, between passages five to nine.
Heme oxygenase 1 (HO 1) Western Blotting: A polyclonal rabbit anti-heme oxygenase 1 (HO 1, ˜32 kDa) was purchased from Stressgen Biotechnologies, Victoria, BC, Canada. MASMCs were treated with 100 nM cicaprost for 8 hours in RPMI vehicle at 37° C. Control cells were treated with vehicle for the same time period. […] Protein isolated from aortae of high fat fed mice was quantitated by the BioRad DC assay for Western Blotting.

[8] = system: mouse aortic smooth muscle cells (MASMC); assay: H2O2-induced 8,12-iso-iPF2α-VI generation in MASMC; assay type: cell-based
Procedure: as §3
Cicaprost (100 nM, Schering A G, Berlin, Germany by agreement) was added to MASMC medium just prior to addition of H2O2.
Short term treatment with E2: Cells were washed twice rinsing with RPMI serum free medium and then pre-incubated in 1 ml RPMI serum free medium for 1 hour. […] .
The 8,12-iso-iPF2α-VI was analyzed in 1 ml conditioned medium, adjusted to pH 3, using the same method described for urine samples.

IP [9] = biological target: T1, IP (Mus musculus, UniProt P43252); assay: Direct measurement of blood pressure after cicaprost; assay type: in vivo; settings: cicaprost 1 μg/kg iv
T1 construct: from tissue; host or cells: live anesthetized mice (WT, IP+/- and IP-/- littermates, C57BL/6 background); vasculature
Source text: (§4) IPKO and mPGES-1 KO mice: IPKO mice were backcrossed into a C57BL/6 genetic background (Cheng et al., 2002, Science 296: 539). IP^−/−, IP^+/−, and WT littermates were identified in litters generated by the intercross of IP^+/− animals by polymerase chain reaction analysis (PCR) of genomic DNA isolated from tail biopsy samples. Southern blot analysis confirmed the IP gene copy number. mPGES-1 KO mice were kindly provided by Pfizer Inc (New York, N.Y.). They were generated and maintained on the DBA/1 lacJ genetic background (Trebino et al., 2003, Proc. Natl. Acad. Sci. U.S.A. 100: 9044). Heterozygous animals were intercrossed, and the litters were screened by PCR analysis to identify both mPGES-1 KO and wild-type controls. Biochemical and functional analyses in each case were performed on mutant mice and WT littermate controls.
(§5) (iii) Direct measurement of blood pressure: Mice were anesthetized (ketamine 100 mg/kg, acepromazine 5 mg/kg) and placed on a temperature-controlled panel. The right internal jugular vein and left carotid artery were cannulated with PE-10 tubing. The arterial catheter was connected to a Capto SP844 pressure transducer (Capto, Horten, Norway), and blood pressure (BP) was monitored continuously with a Powerlab/8SP system (AD Instruments Inc.), as previously described (Hui et al., 2004, Circulation 110:3360; Rocca et al., 2000, Nat. Med. 6:219). Blood pressure and heart rate were continuously monitored for 20-40 minutes until stable values were obtained. After the equilibration period and the baseline BP was recorded, mice were injected via the right internal jugular vein with cicaprost (1 ug/kg in 4 mL/kg saline) as a bolus, and the same volume of saline was injected before cicaprost administration to exclude volume-mediated BP changes. The BP was continuously recorded until it returned to pretreatment baseline.

IP [10] = assay: as above; assay type: in vivo, mouse; settings: cicaprost 1 μg/kg iv, IP−/−
Source text: as §4, §5

IP [11] = assay: Whole blood platelet aggregation assay; settings: 10 nM cicaprost, collagen 2 μg/ml ex vivo
[12] = nimesulide, severe flow reduction

T1 sequence (P43252 1-412 limits assumed): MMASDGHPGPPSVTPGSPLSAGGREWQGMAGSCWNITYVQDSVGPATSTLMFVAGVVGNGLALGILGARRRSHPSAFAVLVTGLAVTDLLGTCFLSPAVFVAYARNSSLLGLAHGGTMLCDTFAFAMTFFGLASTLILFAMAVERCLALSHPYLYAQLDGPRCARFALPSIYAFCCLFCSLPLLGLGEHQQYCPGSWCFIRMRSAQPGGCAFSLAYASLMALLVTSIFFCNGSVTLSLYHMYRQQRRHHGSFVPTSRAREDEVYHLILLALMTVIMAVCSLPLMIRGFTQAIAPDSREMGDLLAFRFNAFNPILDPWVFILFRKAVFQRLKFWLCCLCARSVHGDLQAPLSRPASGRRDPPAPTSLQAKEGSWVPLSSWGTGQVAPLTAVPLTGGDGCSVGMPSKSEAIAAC

SMILES: Cc1ccc(-c2cc(C(F)(F)F)nn2-c2ccc(S(N)(=O)=O)cc2)cc1 [celecoxib]
- blood pressure compared to WT controls (mice [1]): elevated

SMILES: CS(=O)(=O)Nc1ccc([N+](=O)[O-])cc1Oc1ccccc1 [nimesulide]
- urinary PGI-M (Male C57BL/6J mice [2]; nimesulide 40 mg/L in drinking water, chronic, control mice): depressed urinary PGI-M
- urinary 2,3-dinor TxB2 excretion (Male C57BL/6J mice [2]; nimesulide, control conditions): failed to suppress
- excretion of an isoprostane biomarker of lipid peroxidation (Male C57BL/6J mice [2]; nimesulide, control mice): did not alter excretion
- urinary PGI-M (Male C57BL/6J mice [2]; nimesulide, moderate and severe reduction in flow): depressed PGI-M to a similar degree
- oxidant stress, urinary 8,12-iso-iPF2α-VI (Male C57BL/6J mice [2]; [12]): markedly augmented
- platelet activation, urinary 2,3-dinor TxB2 excretion (Male C57BL/6J mice [2]; [12]): markedly augmented
- lumen diameter and external elastic lamina diameter of RCs or LCs (Male C57BL/6J mice [3]; control mice): did not itself affect
- flow dependent reduction in vessel size (luminal and EEL diameter) (Male C57BL/6J mice [3]; moderate or severe flow reduction): failed to alter
- neointimal area, intimal hyperplastic response in LC (Male C57BL/6J mice [3]; severe flow reduction): markedly augmented the intimal hyperplastic response
- blood flow in the LC, nimesulide vs vehicle (Male C57BL/6J mice [4]): marked reduction

SMILES: CC1(C)OC(=O)C(c2cccc(F)c2)=C1c1ccc(S(C)(=O)=O)cc1 [DFU, 5,5-dimethyl-3-(3-fluorophenyl)-4-(4-methylsulphonyl)phenyl-2(5H)-furanone]
- mean impact on time to occlusion, % of WT value (mice [5]): 56.2%
- mean depression of urinary 2,3-dinor 6-keto PGF1α from pretreatment values (eicosanoid biosynthesis; DFU, WT mice): 71.2%
- mean depression of urinary PGE-M from pretreatment values (eicosanoid biosynthesis; DFU, WT mice): 52.3%
- urinary 2,3-dinor TxB2 vs pretreatment values (eicosanoid biosynthesis; DFU, WT mice): did not depress
- urinary 2,3-dinor TxB2 (eicosanoid biosynthesis; DFU, WT mice, second value of the printed pair (4.63±1.3 vs.), order not stated): 6.0±1.1 ng/mg creatinine
- urinary 2,3-dinor 6-keto PGF1α (eicosanoid biosynthesis; PGHS-2 inhibition, mice): suppressed substantially
- urinary 2,3-dinor TxB2 (eicosanoid biosynthesis; treatment with PGHS-2 selective inhibitor, mice): unaltered significantly

SMILES: Cc1onc(-c2ccccc2)c1-c1ccc(S(N)(=O)=O)cc1 [valdecoxib]
- relative risk of heart attack and stroke [6]: three-fold increase
- adverse event diagnosed in the patient [7]: left iliac vein thrombosis and bilateral pulmonary emboli

SMILES: CCC#CC[C@H](C)[C@H](O)C#C[C@@H]1[C@H]2C/C(=C/COCC(=O)O)C[C@H]2C[C@H]1O [cicaprost]
- HO 1 protein expression (heme oxygenase 1 (HO 1)): increased expression
- response of MASMCs to H2O2, iP generation ([8]; cicaprost 100 nM, H2O2 100 μM 30 min): limits the response
- iP generation from unstimulated cells ([8]; cicaprost, MASMC without H2O2): does not significantly reduce
- duration of the depressor response (IP [9]; IP+/−): 5.3 ± 1.1 min
- maximal decline in mean arterial pressure from pretreatment baseline (IP [9]; IP+/−): 24%
- maximal decline in mean arterial pressure from pretreatment baseline (IP [9]; WT): 36±3.5%
- duration of the depressor response (IP [9]; WTs): 10.8 ± 2.5 min
- depressor response, MAP (IP [10]): no change in MAP
- maximal decline in mean arterial pressure from pretreatment baseline (IP [10]): 0%
- platelet aggregation readout, second value printed for IP+/− mice (IP [11]): 100%
- inhibition of platelet aggregation, % of the maximal inhibition observed in WTs (IP [11]; IP+/− mice): 86.7%
